Measurements published in publication PMC3128011, “Central nervous system exposure of next generation quinoline methanols is reduced relative to mefloquine after intravenous dosing in mice” (Malaria Journal, 2011).
In brackets after ≈: the same amount, converted by molar mass. Where two headings read alike, the source gives them in different places.

Assays:
[1] = Brain and plasma concentrations after IV dosing in mice (LCMS/MS); free brain level from equilibrium dialysis fu; format: in vivo; conditions: male FVB mice, IV 5 mg/kg; for Maximum whole brain concentration: sampled 5 min, 1, 6, 24 h; for Maximum free brain concentration: whole brain concentration x fu from brain homogenate equilibrium dialysis; for remaining at 24 h: mouse, plasma, 24 h relative to the 5 minute time point, read-out: Residual plasma concentration at 24 h (24h % Remaining)
Procedure: All in vivo studies were conducted in accordance with protocols approved by the Victorian College of Pharmacy, Animal Ethics Committee. Male, six week old FVB mice were obtained from the Animals Resources Center (Perth, Western Australia) and provided with food and water ad libitum. Mice were administered a 50 μL bolus injection of mefloquine, its enantiomers or one of twenty five quinoline methanol compounds by tail vein injection (dosing solution concentration 2.8 mg/ml) for a nominal dose of 5 mg/kg. The compounds were prepared in 5% DMSO in 5% glucose solution buffered to a pH of 3-5 using citrate or acetate as appropriate based on an assessment of the lipophilicity and pKa of the compound. At 5 min, 1 h, 6 h or 24 h post-dosing, mice were anaesthetized with inhaled isoflurane (3%) approximately 3-4 minutes prior to blood and brain harvest. Blood was collected by cardiac puncture from groups of 2-3 mice and the whole brain was removed. The whole brains were placed into preweighed polypropylene vials and snap frozen prior to storage along with the plasma samples at -20°C until analysis. On the day of analysis, the whole brain was homogenized in three parts of aqueous solution containing 0.1 M EDTA and 0.4 g/L KF (inhibitors of hydrolytic enzymes to reduce the potential for ex vivo tissue-mediated degradation of the test compounds). Calibration standards were prepared by spiking blank brain homogenate and blank plasma with the test compound. Both samples and standards were processed by adding acetonitrile (to precipitate proteins) and centrifuged to separate the supernatant for analysis. An aliquot of the supernatant from each brain homogenate and plasma samples were analysed by UPLC/MS/MS on either a Quattro Premier XE, a Quattro Ultima Pt or a Xevo XT Mass Spectrometer (Waters Corporation, USA).
The unbound fraction of each analog in mouse brain homogenate was determined in vitro using equilibrium dialysis according to methodology reported previously. In brief, a 96 well equilibrium dialysis apparatus was used to determine the unbound fraction in brain homogenate for each compound (HT Dialysis LLC, Gales Ferry, CT). Membranes (12-14 kDA cut-off) were conditioned in deionized water for 60 minutes, followed by conditioning in 80:20 deionized water:ethanol for 20 minutes, and then rinsed in artificial cerebrospinal fluid (CSF) before use. Mouse brain was removed from the freezer and allowed to thaw on the day of experiment. Thawed brain tissue was then homogenized with artificial CSF to a final composition of 1:2 brain:artificial CSF using a Covaris S2 (K Biosciences, Hoddesdon, UK). Diluted brain homogenate was then spiked with the test compound (10 ug/g), and 150 μL aliquots (n = 6 replicate determinations) loaded into the 96-well equilibrium dialysis plate. Dialysis vs artificial CSF (150 μL) was carried out for 5 hours in a temperature controlled incubator at ca. 37°C (Barworld Scientific Ltd, UK) using an orbital microplate shaker at 125 revolutions/minute (Barworld scientific Ltd, UK). At the end of the incubation period, aliquots of brain homogenate or artificial CSF were transferred to micronic tubes (Micronic B.V., the Netherlands) and the composition in each tube balanced with control fluid, such that the volume of artificial CSF to brain was the same. Sample extraction was performed by the addition of 400 μL of acetonitrile containing an appropriate internal standard. Samples were allowed to mix for 1 minute and then centrifuged at 3000 rpm in 96-well blocks for 15 minutes (Allegra X12-R, Beckman Coulter, USA). All samples were then analysed by UPLC/MS/MS on a Quattro Premier XE Mass Spectrometer (Waters Corporation, USA). The unbound fraction in brain was determined as the ratio of the peak area in artificial CSF to that in brain, with correction for dilution factor according to eq.1 [14].(1) [drawing 1] […]

P. falciparum strain W2 = assay: Plasmodium falciparum susceptibility assay (labeled hypoxanthine); format: cell-based; conditions: for IC90: Plasmodium falciparum; for Potency against P. falciparum in words: in vitro
Procedure: The in vitro activities of quinoline methanols against P. falciparum strains W2, D6, TM91C235, and TM90C2A were evaluated using the traditional labeled hypoxanthine assay of Desjardins et al as modified by Milhous et al. These four P. falciparum strains were selected since they have various levels of resistance to conventional anti-malarials. W2 is chloroquine resistant and mefloquine sensitive, D6 is chloroquine sensitive but naturally less susceptible to mefloquine, TM91C235 is resistant to mefloquine, chloroquine, and pyrimethamine as is TM90C2A, however this latter parasite is a two pfmdr1 copy strain (pfmdr1 amplification has been associated with clinical mefloquine resistance). Mefloquine is routinely screened in these assays to ensure the validity. Historical values for mefloquine against all the strains are reported elsewhere. The focus of this study was the mefloquine-sensitive strain W2, however values for the other strains for all the compounds are reported in the Supplementary Information.

[2] = Half-life after oral dosing (data not shown); format: in vivo

Compound | Maximum whole brain concentration [1] [ng/g] | Maximum free brain concentration [1] [ng/g] | remaining at 24 h [1] [%] | Brain concentrations (free and whole) relative to mefloquine, in words [1] | Potency against P. falciparum in words (P. falciparum strain W2) | also measured
O[C@H](c1cc(C(F)(F)F)nc2c(C(F)(F)F)cccc12)[C@@H]1CCCCN1 (single isomer, unassigned) [(+) mefloquine enantiomer, reference compound] | 1159 | 2.5 |  |  |  | 
OC(c1cc(C(F)(F)F)nc2c(C(F)(F)F)cccc12)C1CCCCN1 (single isomer, unassigned; (-)) [(-) mefloquine enantiomer, reference compound] |  |  |  |  |  | Maximum whole brain concentration ([1]; 5 mg/kg): 2249 ng/g; Maximum free brain concentration ([1]; 5 mg/kg): 5.2 ng/g
OC(c1cc(C(F)(F)F)nc2c(C(F)(F)F)cccc12)C1CCCCN1 (centres unmarked) [Mefloquine, mefloquine] |  |  | 35 |  |  | Maximum whole brain concentration ([1]; listed as MQ, 5 mg/kg): 1807 ng/g; Maximum free brain concentration ([1]; listed as MQ, 5 mg/kg): 4.9 ng/g; IC90 (P. falciparum strain W2; mefloquine-sensitive W2 strain of P. falciparum, read-out: IC90 W2): 0.01 µg/mL (≈ 0.0264 µM)
CCCCNCC(O)c1cc(C(F)(F)F)nc2c(C(F)(F)F)cccc12 (centres unmarked) [WR177000] |  |  |  | much higher | most active | 
CNCC(O)c1cc(C(F)(F)F)nc2c(C(F)(F)F)cccc12 (centres unmarked) [WR308245] |  |  |  | much higher | most active | 
CN(C)CC(O)c1cc(C(F)(F)F)nc2c(C(F)(F)F)cccc12 (centres unmarked) [WR308246] |  |  |  | much higher | most active | 
CC(C)NCC(O)c1cc(C(F)(F)F)nc2c(C(F)(F)F)cccc12 (centres unmarked) [WR308257] |  |  |  | much higher | most active | 
OC(CN1CCCCC1)c1cc(C(F)(F)F)nc2c(C(F)(F)F)cccc12 (centres unmarked) [WR308265] |  |  |  | much higher | most active | 
CSCCCNCC(O)c1cc(C(F)(F)F)nc2c(C(F)(F)F)cccc12 (centres unmarked) [WR308278] |  |  |  | much higher | most active | 
CCC(C)CNCC(O)c1cc(C(F)(F)F)nc2c(C(F)(F)F)cccc12 (centres unmarked) [WR308387] |  |  |  | much higher | most active | 
OC(CNCCNCc1ccccc1)c1cc(C(F)(F)F)nc2c(C(F)(F)F)cccc12 (centres unmarked) [WR308396] | 1768 | 3.5 | 4.6 |  | acceptable potency | IC90 (P. falciparum strain W2; W2, read-out: IC90 W2): 0.006 µg/mL (≈ 0.0131 µM)
COCCNCC(O)c1cc(C(F)(F)F)nc2c(C(F)(F)F)cccc12 (centres unmarked) [WR308412] |  |  |  | much higher | most active | 
OC(CNC1CCNC1)c1cc(C(F)(F)F)nc2c(C(F)(F)F)cccc12 (centres unmarked) [WR308781] | 689 | 5.6 | 3.3 |  |  | IC90 (P. falciparum strain W2; W2, read-out: IC90 W2): > 0.5 µg/mL
OC(CNC1CCCNC1)c1cc(C(F)(F)F)nc2c(C(F)(F)F)cccc12 (centres unmarked) [WR318744] | 593 | 3.5 | 17 |  |  | IC90 (P. falciparum strain W2; W2, read-out: IC90 W2): > 0.5 µg/mL
CCCCNCCNCC(O)c1cc(C(F)(F)F)nc2c(C(F)(F)F)cccc12 (centres unmarked) [WR318746] | 431 | 3.8 | 2.4 |  |  | IC90 (P. falciparum strain W2; W2, read-out: IC90 W2): 0.069 µg/mL (≈ 0.163 µM)
OC(CNCC12CCC(C1)NC2)c1cc(C(F)(F)F)nc2c(C(F)(F)F)cccc12 (centres unmarked) [WR319535] | 145 | 0.45 | 2.7 | acceptable | modest potency | Half-life relative to mefloquine [2]: longer than mefloquine
